Test: solvent given as SMILES

For `CC1=CC(C)=[N+]2C1=Cc1c3ccccc3c(C#Cc3cccs3)n1[B-]2(F)F`, the absorption maximum (in CCCCCC) was 621 nm, the absorption maximum (in CCCCCCCCO) was 625 nm and the absorption maximum (in CCOC(C)=O) was 620 nm. For the same compound, the absorption maximum (in CN(C)C=O) was 626 nm and the absorption maximum (in ClCCl) was 618 nm.
Compound `COC(=O)c1ccc(/C=C2\C=C(c3ccc([N+](=O)[O-])cc3)N(CC(C)C)C2=O)cc1` has an absorption maximum (in C1COCCO1) of 442 nm.
With `CCN(CC)c1ccc2cc(-c3cn4cc5ccccc5cc4n3)c(=O)oc2c1` the absorption maximum (in ClC(Cl)Cl) was 434 nm.
Work on `CC1(C)C(/C=C/C2=C(Oc3ccc(CCN=C=S)cc3)C(=C/C=C3/N(CCCS(=O)(=O)[O-])c4ccccc4C3(C)C)/CCC2)=[N+](CCCS(=O)(=O)[O-])c2ccccc21` yielded an absorption maximum (in CO) of 765 nm.
Compound `CCCCOc1ccc(-c2oc3cc4n(c3c2-c2ccc(OCCCC)cc2)[B-](F)(F)[N+]2=Cc3cc5oc(-c6ccc(OCCCC)cc6)c(-c6ccc(OCCCC)cc6)c5n3[B-](F)(F)[N+]2=C4)cc1` has an absorption maximum (in C1CCOC1) of 596 nm, an absorption maximum (in CN(C)C=O) of 593 nm and an absorption maximum (in CS(C)=O) of 594 nm. The absorption maximum (in Cc1ccccc1) was 608 nm, the absorption maximum (in ClC(Cl)Cl) was 610 nm and the absorption maximum (in ClCCl) was 606 nm.
For `CNC1=C2C=CC=[N+]2[B-](F)(F)n2cccc21`, the absorption maximum (in C1CCCCC1) was 418.5 nm, the absorption maximum (in CC(C)=O) was 395.5 nm and the absorption maximum (in CCO) was 397 nm. For the same compound, the absorption maximum (in CCOC(C)=O) was 398.5 nm, the absorption maximum (in CO) was 394.5 nm and the absorption maximum (in OCC(F)(F)F) was 393 nm.
With `CCn1c2ccccc2c2ccc(-c3ccc(OC)cc3)cc21` the absorption maximum (in C1CCCCC1) was 310 nm.
Compound `Cc1cc(C)c(B2c3cc(C(C)(C)C)cc4ccc5c6ccccc6c6cc(C(C)(C)C)cc2c6c5c34)c(C)c1` has an absorption maximum (in C1CCCCC1) of 424 nm.
With `CCCCCCOc1cc(/C=C/c2cc(OCCCCCC)c(/C=C/c3cc(OCCCCCC)c(C=C(C#N)C#N)cc3OCCCCCC)cc2OCCCCCC)c(OCCCCCC)cc1C=C(C#N)C#N` the absorption maximum (in ClCCl) was 518 nm.
In the case of `C[N+]1=C(/C=C/C=C2/N(CCC[N+](C)(C)C)c3ccc(Br)cc3C2(C)C)C(C)(C)c2ccccc21`, the absorption maximum (in CS(C)=O) is reported as 556 nm.
Work on `CC[N+]1(CC)CN2C(=N1)C(C(=O)O)=Cc1cc(OC)ccc12` yielded an absorption maximum (in O) of 394 nm.
Compound `c1ccc2c(c1)[nH]c1c3[nH]c4ccccc4c3c3nsnc3c21` has an absorption maximum (in CN(C)C=O) of 410 nm, an absorption maximum (in Cc1ccccc1) of 410 nm and an absorption maximum (in ClCCl) of 410 nm.
`CCCN1c2ccccc2Sc2cc(/C=C\c3cc(=O)oc4cc(C)ccc34)ccc21` showed an absorption maximum (in ClC(Cl)Cl) of 424 nm.
For `CCOC(=O)COc1ccc(/C=C/C2=[N+]3C(=Cc4c5ccccc5c(-c5[nH]c(C)cc5C)n4[B-]3(F)F)C(C)=C2)cc1`, the absorption maximum (in ClCCl) was 680 nm.
Work on `Cc1nc2cccc(-c3nc4ccccc4[nH]3)c2c(=O)[nH]1` yielded an absorption maximum (in CN(C)C=O) of 313 nm.
With `CCCCCCC1(CCCCCC)c2cc(-c3nc(-c4ccc5c(c4)C(CCCCCC)(CCCCCC)c4cc(N6c7ccccc7Oc7ccccc76)ccc4-5)nc(-c4ccc5c(c4)C(CCCCCC)(CCCCCC)c4cc(N6c7ccccc7Oc7ccccc76)ccc4-5)n3)ccc2-c2ccc(N3c4ccccc4Oc4ccccc43)cc21` the absorption maximum (in C1CCOC1) was 391 nm.
With `F[B-]1(F)C2=C(C=c3c4cccc5cccc(c54)n31)c1cccc3ccc[n+]2c13` the absorption maximum (in CS(C)=O) was 622 nm.
Compound `F[B-]1(F)n2c(c3ccccc3c2-c2ccccc2)N=C2c3ccccc3C(c3ccccc3)=[N+]21` has an absorption maximum (in ClCCl) of 712 nm.
`COc1ccc(C2=Cc3ccc4ccccc4[n+]3[B-](F)(F)O2)cc1` gave an absorption maximum (in ClC(Cl)Cl) of 439 nm.
Compound `N#Cc1ccc(C#Cc2ccc(C#Cc3ccc(C#Cc4ccccc4C#N)cc3C#N)cc2C#N)cc1` has an absorption maximum (in C1CCOC1) of 356 nm, an absorption maximum (in CC#N) of 352 nm and an absorption maximum (in CN(C)C=O) of 357 nm. It also gave an absorption maximum (in ClC(Cl)Cl) of 357 nm and an absorption maximum (in c1ccccc1) of 358 nm.
With `CN(C)c1ccc(C(=Cc2ccc(C=O)cc2)c2ccc(N(C)C)cc2)cc1` the absorption maximum (in C1CCOC1) was 407 nm.
Compound `O=P1(c2ccccc2)C(c2ccc(N(c3ccccc3)c3ccccc3)cc2)=Cc2ccccc21` (stereo not drawn) has an absorption maximum (in C1CCOC1) of 408 nm, an absorption maximum (in CC#N) of 407 nm and an absorption maximum (in CN(C)C=O) of 410 nm. The absorption maximum (in Cc1ccccc1) was 413 nm, the absorption maximum (in ClC(Cl)Cl) was 418 nm and the absorption maximum (in ClCCl) was 415 nm.
Compound `Cc1cc(-n2c3ccccc3c3cc4c(cc32)C2c3ccccc3C4c3ccccc32)c(C)cc1-c1nc(-c2ccccc2)nc(-c2ccccc2)n1` has an absorption maximum (in Cc1ccccc1) of 345 nm.
